Columns and labels:
Details in all cases: 72 h
Caco-2 [1] = assay: cell viability relative to DMSO; higher = less toxic
Calu-3 [2] = assay: as above
HepG2 [3] = assay: as above
U2OS [4] = assay: as above
Vero E6 [5] = assay: as above
Caco-2 [6] = assay: relative viability EC50 (midpoint between 100% and the lowest measured viability); higher = less toxic
Calu-3 [7] = assay: as above
HepG2 [8] = assay: as above
U2OS [9] = assay: as above
Vero E6 [10] = assay: as above
Caco-2 [11] = assay: drug sensitivity score (DSS) for viability; higher = more toxic; extreme values may be limits of the assay
Calu-3 [12] = assay: as above
HepG2 [13] = assay: as above
U2OS [14] = assay: as above
Vero E6 [15] = assay: as above

Row | Compound | cell viability (Caco-2 [1]; 1 nM) [%] | cell viability (Caco-2 [1]; 10 nM) [%] | cell viability (Caco-2 [1]; 100 nM) [%] | cell viability (Caco-2 [1]; 1000 nM) [%] | cell viability (Caco-2 [1]; 10000 nM) [%] | cell viability (Calu-3 [2]; 1 nM) [%] | cell viability (Calu-3 [2]; 10 nM) [%] | cell viability (Calu-3 [2]; 100 nM) [%] | cell viability (Calu-3 [2]; 1000 nM) [%] | cell viability (Calu-3 [2]; 10000 nM) [%] | cell viability (HepG2 [3]; 1 nM) [%] | cell viability (HepG2 [3]; 10 nM) [%] | cell viability (HepG2 [3]; 100 nM) [%] | cell viability (HepG2 [3]; 1000 nM) [%] | cell viability (HepG2 [3]; 10000 nM) [%] | cell viability (U2OS [4]; 1 nM) [%] | cell viability (U2OS [4]; 10 nM) [%] | cell viability (U2OS [4]; 100 nM) [%] | cell viability (U2OS [4]; 1000 nM) [%] | cell viability (U2OS [4]; 10000 nM) [%] | cell viability (Vero E6 [5]; 1 nM) [%] | cell viability (Vero E6 [5]; 10 nM) [%] | cell viability (Vero E6 [5]; 100 nM) [%] | cell viability (Vero E6 [5]; 1000 nM) [%] | cell viability (Vero E6 [5]; 10000 nM) [%] | relative viability EC50 (Caco-2 [6]) [µM] | relative viability EC50 (Calu-3 [7]) [µM] | relative viability EC50 (HepG2 [8]) [µM] | relative viability EC50 (U2OS [9]) [µM] | relative viability EC50 (Vero E6 [10]) [µM] | drug sensitivity score (Caco-2 [11]) | drug sensitivity score (Calu-3 [12]) | drug sensitivity score (HepG2 [13]) | drug sensitivity score (U2OS [14]) | drug sensitivity score (Vero E6 [15])
1 | NC(=O)c1ncn([C@@H]2O[C@H](CO)[C@@H](O)[C@H]2O)c1O [mizoribine] | 93.8 | 97.7 | 94.7 | 97.1 | 97.6 | 104 | 101 | 95.3 | 102 | 88.4 | 112 | 100 | 110 | 96.2 | 106 | 101 | 103 | 99.6 | 96.3 | 99.1 | 101 | 103 | 99.1 | 97.8 | 101 | > 10 | > 10 | > 10 | > 10 | > 10 | 0 | 0 | 0 | 0 | 0
2 | CCOc1cc(N)c(Cl)cc1C(=O)NCC1CN(Cc2ccc(F)cc2)CCO1 (stereo not given) [mosapride] | 89.6 | 93.4 | 99.9 | 96.1 | 100 | 95.7 | 87.4 | 105 | 97.6 | 106 | 95.4 | 99.7 | 98.8 | 98.3 | 101 | 101 | 95.9 | 99 | 95.9 | 103 | 99.1 | 102 | 101 | 94.5 | 98.3 | > 10 | > 10 | > 10 | > 10 | > 10 | 0 | 0 | 0 | 0 | 0
3 | N=C(N)Nc1ccc(C(=O)Oc2ccc3cc(C(=N)N)ccc3c2)cc1 [nafamostat] | 101 | 100 | 98.8 | 92.4 | 107 | 98.3 | 103 | 107 | 103 | 99.4 | 96.5 | 108 | 104 | 108 | 77.1 | 102 | 99.4 | 102 | 97.6 | 102 | 99.7 | 103 | 104 | 102 | 97 | > 10 | > 10 | > 10 | > 10 | > 10 | 0 | 0 | 0.5 | 0 | 0
4 | O=C(O)c1cccnc1 [niacin] | 91.6 | 96.7 | 94.2 | 103 | 103 | 86.8 | 103 | 98.9 | 109 | 99.2 | 113 | 105 | 114 | 97.9 | 106 | 93.8 | 98.2 | 95.3 | 97.1 | 102 | 99.4 | 98.7 | 96.3 | 91.1 | 101 | > 10 | > 10 | > 10 | > 10 | > 10 | 0 | 0 | 0 | 0 | 0
5 | Cc1onc(-c2ccccc2)c1C(=O)N[C@@H]1C(=O)N2[C@@H]1SC(C)(C)[C@@H]2C(=O)O [oxacillin] | 92.9 | 93.3 | 98.1 | 85.2 | 116 | 92.6 | 104 | 102 | 99.1 | 96.2 | 89.9 | 102 | 91.3 | 114 | 108 | 100 | 98.7 | 98 | 98.9 | 108 | 99.4 | 87.2 | 102 | 93.9 | 94 | > 10 | > 10 | > 10 | > 10 | > 10 | 0 | 0 | 0 | 0 | 0
6 | O=C(O)c1nc(=O)[nH]c(=O)[nH]1 [oxonic-acid] | 87.9 | 76.3 | 89.9 | 112 | 101 | 94.6 | 106 | 105 | 110 | 108 | 105 | 103 | 97.4 | 115 | 101 | 102 | 101 | 99.6 | 102 | 106 | 89.2 | 63.8 | 98.5 | 79.8 | 90.7 | > 10 | > 10 | > 10 | > 10 | > 10 | 0 | 0 | 0 | 0 | 0
7 | CC(=O)Nc1ccc(O)cc1 [paracetamol] | 91.7 | 103 | 94.7 | 98.2 | 98.8 | 94.7 | 96.6 | 97.2 | 99.8 | 99 | 99.5 | 104 | 88.8 | 94.3 | 92.5 | 99.9 | 101 | 95.4 | 102 | 93.7 | 97.9 | 95.4 | 102 | 92.5 | 102 | > 10 | > 10 | > 10 | > 10 | > 10 | 0 | 0 | 0.6 | 0 | 0
8 | Oc1ccc(Cl)cc1 [parachlorophenol] | 94.2 | 91.5 | 99.7 | 90.4 | 100 | 102 | 100 | 98.9 | 91.2 | 104 | 108 | 99.1 | 90.9 | 111 | 98.4 | 98.5 | 96.5 | 97.2 | 95.4 | 102 | 100 | 101 | 99.3 | 97.7 | 99.7 | > 10 | > 10 | > 10 | > 10 | > 10 | 0 | 0 | 0 | 0 | 0
9 | CCCCCCCCCCCCCC[C@@H](O)[C@@H](O)[C@@H](N)CO [phytosphingosine] | 115 | 102 | 87.3 | 113 | 99.5 | 103 | 101 | 98.6 | 82.3 | 103 | 91 | 92.7 | 112 | 100 | 97.9 | 101 | 100 | 98.9 | 102 | 98.3 | 98.7 | 98.2 | 95.9 | 111 | 95.2 | > 10 | > 10 | > 10 | > 10 | > 10 | 0 | 0 | 0 | 0 | 0
10 | c1cc(CN2CCCNCCNCCCNCC2)ccc1CN1CCCNCCNCCCNCC1 [plerixafor] | 101 | 96.1 | 97.5 | 101 | 95.2 | 90.7 | 104 | 97.3 | 94.4 | 105 | 92.9 | 104 | 88.4 | 106 | 96.5 | 101 | 99.8 | 97.9 | 97.2 | 98.1 | 104 | 99.1 | 104 | 101 | 100 | > 10 | > 10 | > 10 | > 10 | > 10 | 0 | 0 | 0 | 0 | 0
11 | CC(=O)Oc1cc2c(s1)CCN(C(C(=O)C1CC1)c1ccccc1F)C2 (stereo not given) [prasugrel] | 102 | 101 | 93 | 105 | 94.1 | 101 | 103 | 102 | 97.3 | 106 | 105 | 95 | 106 | 103 | 93.3 | 104 | 98 | 102 | 97.9 | 98.8 | 100 | 93.6 | 96.2 | 96.2 | 93.2 | > 10 | > 10 | > 10 | > 10 | > 10 | 0 | 0 | 0 | 0 | 0
12 | CCCN(CCC)S(=O)(=O)c1ccc(C(=O)O)cc1 [probenecid] | 95.8 | 97.6 | 88.8 | 104 | 93.3 | 88.3 | 106 | 102 | 118 | 91.3 | 105 | 91.6 | 97 | 95.4 | 109 | 97.5 | 97.5 | 95.2 | 99.1 | 95.9 | 102 | 104 | 103 | 99.3 | 99.6 | > 10 | > 10 | > 10 | > 10 | > 10 | 0 | 0 | 0 | 0 | 0
13 | O=c1c(O)c(-c2ccc(O)c(O)c2)oc2cc(O)cc(O)c12 [quercetin] | 104 | 93.6 | 100 | 87.6 | 79.5 | 98.8 | 100 | 92.4 | 92.8 | 80.5 | 94.1 | 95.8 | 99.2 | 99.1 | 84 | 99.1 | 97 | 98 | 97 | 96.1 | 99.3 | 99 | 95.9 | 101 | 99.3 | > 10 | > 10 | > 10 | > 10 | > 10 | 1.9 | 0.8 | 0.4 | 0 | 0
14 | Cc1nnc(C(=O)NC(C)(C)c2nc(C(=O)NCc3ccc(F)cc3)c(O)c(=O)n2C)o1 [raltegravir] | 102 | 104 | 94.4 | 94.7 | 99.7 | 104 | 99.3 | 99 | 107 | 104 | 100 | 102 | 97.6 | 118 | 90.3 | 104 | 95.9 | 100 | 97.5 | 100 | 101 | 99.3 | 95.7 | 97.5 | 94.4 | > 10 | > 10 | > 10 | > 10 | > 10 | 0 | 0 | 0 | 0 | 0
